Assay results taken from BindingDB's records for patent US20240409538 (Impact Therapeutics (Shanghai), 2024).

Biological target: Ubiquitin carboxyl-terminal hydrolase 1/WD repeat-containing protein 48 (Homo sapiens, UniProt O94782)
Assay: Not found

Sequence of Ubiquitin carboxyl-terminal hydrolase 1/WD repeat-containing protein 48 (O94782 whole entry): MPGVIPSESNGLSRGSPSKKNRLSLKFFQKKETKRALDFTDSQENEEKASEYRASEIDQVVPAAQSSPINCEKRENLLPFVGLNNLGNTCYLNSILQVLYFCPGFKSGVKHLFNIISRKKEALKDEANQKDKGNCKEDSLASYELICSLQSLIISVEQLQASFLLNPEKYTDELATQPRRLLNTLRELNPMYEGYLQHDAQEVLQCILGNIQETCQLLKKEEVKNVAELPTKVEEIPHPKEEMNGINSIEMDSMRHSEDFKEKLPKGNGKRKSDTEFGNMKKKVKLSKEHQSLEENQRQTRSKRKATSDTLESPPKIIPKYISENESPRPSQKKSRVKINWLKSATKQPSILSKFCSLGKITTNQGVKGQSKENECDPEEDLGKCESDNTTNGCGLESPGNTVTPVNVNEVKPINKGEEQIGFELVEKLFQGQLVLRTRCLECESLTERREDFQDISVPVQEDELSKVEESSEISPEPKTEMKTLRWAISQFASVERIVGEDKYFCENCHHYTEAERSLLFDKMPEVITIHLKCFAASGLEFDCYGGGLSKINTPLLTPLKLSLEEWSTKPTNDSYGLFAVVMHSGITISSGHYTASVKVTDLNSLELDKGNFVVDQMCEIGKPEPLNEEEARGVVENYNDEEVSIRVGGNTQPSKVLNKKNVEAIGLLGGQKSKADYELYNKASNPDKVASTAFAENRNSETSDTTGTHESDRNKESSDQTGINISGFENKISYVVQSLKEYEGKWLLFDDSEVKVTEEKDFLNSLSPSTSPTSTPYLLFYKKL
Sequence of Ubiquitin carboxyl-terminal hydrolase 1/WD repeat-containing protein 48 (Q8TAF3 whole entry, further chain): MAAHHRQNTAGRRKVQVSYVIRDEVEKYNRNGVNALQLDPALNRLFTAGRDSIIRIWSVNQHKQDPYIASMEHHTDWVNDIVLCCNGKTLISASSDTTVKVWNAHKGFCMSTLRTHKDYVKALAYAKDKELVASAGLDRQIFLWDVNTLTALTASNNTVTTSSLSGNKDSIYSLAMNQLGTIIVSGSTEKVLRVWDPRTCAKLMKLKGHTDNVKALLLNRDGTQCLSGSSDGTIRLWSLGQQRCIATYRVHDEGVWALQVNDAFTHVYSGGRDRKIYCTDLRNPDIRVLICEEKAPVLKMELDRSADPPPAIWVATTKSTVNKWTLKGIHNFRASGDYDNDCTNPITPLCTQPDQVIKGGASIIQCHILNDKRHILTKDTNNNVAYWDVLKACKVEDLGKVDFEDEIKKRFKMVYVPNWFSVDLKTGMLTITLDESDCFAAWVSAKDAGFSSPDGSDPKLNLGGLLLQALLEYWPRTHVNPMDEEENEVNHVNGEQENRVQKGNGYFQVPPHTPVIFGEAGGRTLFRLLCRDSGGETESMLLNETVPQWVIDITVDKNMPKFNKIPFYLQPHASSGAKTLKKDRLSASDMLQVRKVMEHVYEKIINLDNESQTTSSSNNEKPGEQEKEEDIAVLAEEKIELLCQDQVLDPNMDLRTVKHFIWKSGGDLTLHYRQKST

IC50: 77.5 nM
Structure (SMILES): COc1ncnc(OC)c1-c1nc2c(Cc3ccc(-c4nc(C(F)(F)F)cn4C)cc3)cccn2n1 [US20240409538, Example 27]
